The numbers were not newly measured in article PMC10116525 (ACS Omega, 2023), which cites them from elsewhere.

Like-named read-outs stand apart in the source and are kept apart here. Bounds are passed on as bounds.

Where [1] appears, read: Lys^B29-lipidated insulin analogues.

With degludec, under setting [1], the Duration of action was at most 42 h.
detemir: under setting [1], the Duration of action entry was “up to 24 h”.
insulin glargine: the Duration of action entry (precipitation in the subcutaneous space) is recorded as “up to 24 h”.
